The text below walks through data of article PMC12349723, “Computationally accelerated identification of P-glycoprotein inhibitors” (PLOS One, 2025).

Where two headings read alike, the source gives them in different places.

For one data set, the system named is DU145-TXR cells. In words: MTT viability assay, reversal of MDR (re-sensitization to paclitaxel) in P-gp overexpressing DU145-TXR cells. The settings on record: for % Survival, mean / % Survival: 15 µM compound + 500 nM PTX (Paclitaxel, Taxol); for % Survival, mean / % Survival / viability at 15 µM: DU145-TXR; for viability at 15 µM: Homo sapiens, 15 µM Compound Alone. The format is cell-based, human. The method, then: The chemotherapeutic sensitive DU145 human prostate cancer cells and the multidrug resistant sub-line, DU145-TXR, were generous gifts from Dr. Evan Keller (University of Michigan, Ann Arbor, MI). The MDR, P-gp overexpressing DU145-TXR cells were maintained under positive selection pressure by supplementing complete medium with 10 nM paclitaxel (Acros Organics, NJ). In addition to the aforementioned cell lines, the chemotherapeutic sensitive A2780 ovarian cancer cells (93112519, Sigma) and the multidrug resistant A2780-ADR (93112520, Sigma) were maintained in complete RPMI media consisting of RPMI-1640 with L-glutamine, 10% fetal bovine serum (FBS; Corning), 100 U/mL penicillin and 100 μg/mL streptomycin in a humidified incubator at 37 °C and 5% CO2. The MDR, P-gp overexpressing A2780-ADR cell line was maintained under positive selection pressure by supplementing complete medium with 100 nM doxorubicin (Fisher Scientific, NJ). The non-cancerous HFL1 (human lung fibroblast) cell line cell line was a generous gift from Dr. Robert Harrod (Southern Methodist University, Dallas, TX) and was maintained in complete F12K media consisting of F12K with 10% fetal bovine serum, 100 U/mL penicillin, and 100 µg/mL streptomycin (Gibco). Flasks and 96 well plates that were used with the non-cancerous line HFL1 were pre-treated with 0.1 mg/ml Collagen Type 1 (Gibco) and rinsed with PBS (Fisher).
Culture of the DU145, DU145-TXR, and HFL1 cell lines was performed as described in [8]. Culture of the A2780 and A2780-ADR cell lines was performed as described in [9]. MTT assays were performed as described in [8] with minor modifications. LC-MS/MS accumulation assays were performed as described in {Nanayakkara, 2018 #173} [9] with some modifications. […] The inhibitor concentration was lowered to 15 µM here, as the goal of the study was to identify compounds that were effective in reversing MDR at low concentrations, and to determine if the expanded virtual-assisted methods improved on our first-draft attempt. Compounds 56–98 were pre-screened using Resazurin cell viability assays: cells were incubated with 15 µM compound with or without 500 nM PTX for 48 hours, after which cell survival was assessed similar to [39]. Data represent the mean of two separate experiments, with n = 3 samples per experiment (n = 6 total) (S4 Table). The top performing compounds from this initial screen were re-tested with MTT viability assays against DU145-TXR cells, as described below.
MTT assays measure the reduction of yellow, water soluble 3-(4,5-dimethylthiazol-2-yl)-2,5-diphenyltetrazolium bromide (MTT) to blue, insoluble formazan crystals by cellular reductase processes in living cells. Cells were trypsinized from monolayers and seeded in complete medium in 96 well plates. Cancerous cell lines (DU145, DU145-TXR, A2780, A2780-ADR) were seeded at 3,000 cells per well in complete RPMI medium. The non-cancerous HFL1 line was seeded at 4,000 cells per well in complete F12K medium, in collagen-treated plates (Collagen Type 1, Gibco). Cells were incubated with experimental compounds for 48 hours at 37 °C and 5% CO2 in a humidified incubator. At 48 hours, MTT was added (20 µL/well of 5 mg/mL MTT in PBS) to each well. After incubation for 4 hours, the media was removed, and the formazan crystals were dissolved in 100 µL DMSO per well. Plates containing the semi-adherent A2780 or A2780-ADR lines were spun at 1400 rpm for 3 minutes prior to aspiration of media, and the addition of DMSO. Plates were shaken for 10 minutes at 500 rpm on an Orbital shaker (LabDoctor from MidSci, St Louis, MO). The absorbance was measured at 570 nm using a Bio-Tek Cytation 5 (Bio-Tek, Winooski, VT). The measured absorbance value was correlated with the number of metabolically active cells in that well, corrected for absorbance of media. […]
(In general: Tetrazolium dyes change colour on reduction, which living cells bring about.)

The test system of the next data set is P-gp. Briefly: SWISS-ADME prediction of P-gp transport substrate. The settings on record: prediction compared to the LC-MS/MS intracellular accumulation data. The source says: Identifying P-gp inhibitors that are not transport substrates remains inherently challenging. To that end, computational tools such as the SWISS-ADME server attempt to use a molecule’s unique chemical and structural characteristics to predict whether it is likely to be a P-gp transport substrate. Our LC-MS/MS assays allowed us to retroactively test the validity of predictions from SWISS-ADME. […] Alternative identifiers for the molecules identified in this study are shown in S7 Table.
S1 Table. Known P-gp Inhibitors and Predicted Chemical Properties. A non-exhaustive list of known P-gp inhibitors and their selected chemical properties ^[64, 65]. Clinical trial outcomes were adapted from ^[10, 11]. Compounds were evaluated using the SWISS-ADME server ^[54]. […] “Predicted P-gp Substrate” - predicted by SWISS-ADME to be a transport substrate of P-gp. “Known P-gp Substrate” – In addition to being P-gp inhibitors, these molecules are: known transport substrates of P-gp, known non-transport substrates of P-gp, unknown whether it is a transport substrate of P-gp ^[66-68]. If the molecule is designated in a specific generation of P-gp inhibitors - First Generation P-gp inhibitors, Second generation P-gp inhibitors, Third generation P-gp inhibitors.

The mark [1] stands for this setting: mean of 8 samples, read-out: % Survival, mean.
[2] abbreviates: trial 1, sample 1, read-out: % Survival.
[3] abbreviates: trial 1, sample 2, read-out: % Survival.
Where [4] appears, read: trial 1, sample 3, read-out: % Survival.
The mark [5] stands for this setting: trial 1, sample 4, read-out: % Survival.
Setting [6] is: trial 2, sample 1, read-out: % Survival.
[7] abbreviates: trial 2, sample 2, read-out: % Survival.
The mark [8] stands for this setting: trial 2, sample 3, read-out: % Survival.
The mark [9] stands for this setting: trial 2, sample 4, read-out: % Survival.

`Nc1nonc1-n1nnc(C(=O)N/N=C/c2c3ccccc3cc3ccccc23)c1COc1ccc(F)cc1` [Compound 60, Nc1nonc1-n1nnc(C(=O)N\N=C\c2c3ccccc3cc3ccccc23)c1COc1ccc(F)cc1]: the “% Survival, mean” value in the data set with DU145-TXR cells (mean of 8 samples) worked out at 92.8%. Further, the “% Survival” value in the data set on DU145-TXR cells (trial 1, sample 1) was determined as 84%; in the data set on DU145-TXR cells (trial 1, sample 2), 102%; in the data set on DU145-TXR cells (trial 1, sample 3) it was 83%; with DU145-TXR cells (trial 1, sample 4) it was 120%; in the data set on DU145-TXR cells (trial 2, sample 1) it was 83%; with DU145-TXR cells (trial 2, sample 2), 92%. Also, the “% Survival” value turned out to be 89% in the data set with DU145-TXR cells (trial 2, sample 3) and 89% in the data set on DU145-TXR cells (trial 2, sample 4). Further, the viability at 15 µM in the data set with DU145-TXR cells (setting [1]) worked out at 93.6%; with DU145-TXR cells (setting [2]) it was 100%; in the data set on DU145-TXR cells (setting [3]), 103%; with DU145-TXR cells (setting [4]), 90%; in the data set with DU145-TXR cells (setting [5]), 96%; in the data set on DU145-TXR cells (setting [6]), 93%. Besides, the viability at 15 µM in the data set with DU145-TXR cells (setting [7]) was 88%; in the data set with DU145-TXR cells (setting [8]), 95%; in the data set on DU145-TXR cells (setting [9]), 83%. Further, the “Correct P-gp Substrate Prediction?” value in the data set on P-gp is “No”.

Regarding `CCN1CCN(Cc2c(C(=O)N/N=C3/C(=O)N(C)c4ccccc43)nnn2-c2nonc2N)CC1` [Compound 61, CCN1CCN(Cc2c(nnn2-c2nonc2N)C(=O)N\N=C2\C(=O)N(C)c3ccccc23)CC1], the “% Survival, mean” value in the data set with DU145-TXR cells (mean of 8 samples) was 51.6%. The “% Survival” value in the data set on DU145-TXR cells (trial 1, sample 1) is reported as 62%; in the data set with DU145-TXR cells (trial 1, sample 2) it was 67%; with DU145-TXR cells (trial 1, sample 3), 64%; in the data set with DU145-TXR cells (trial 1, sample 4) it was 77%; with DU145-TXR cells (trial 2, sample 1), 33%; in the data set on DU145-TXR cells (trial 2, sample 2) it was 35%. In addition, the “% Survival” value stood at 31% with DU145-TXR cells (trial 2, sample 3) and 44% in the data set on DU145-TXR cells (trial 2, sample 4). Besides, the “Re-sensitization of DU145-TXR cells to PTX (reversal of MDR)” value in the data set on DU145-TXR cells (15 µM compound with or without 500 nM PTX, 48 h, MTT, re-sensitization = 30% or greater decrease in cell viability) is on record as “re-sensitized DU145-TXR cells to PTX”. Moreover, the viability at 15 µM with DU145-TXR cells (setting [1]) was 99.3%; in the data set with DU145-TXR cells (setting [2]), 118%; with DU145-TXR cells (setting [3]) it was 117%; with DU145-TXR cells (setting [4]) it was 119%; with DU145-TXR cells (setting [5]) it was 123%; in the data set on DU145-TXR cells (setting [6]), 93%. In addition, the viability at 15 µM with DU145-TXR cells (setting [7]) was determined as 75%; with DU145-TXR cells (setting [8]) it was 77%; in the data set on DU145-TXR cells (setting [9]) it was 72%. Moreover, in the data set on P-gp, the “Correct P-gp Substrate Prediction?” value is given as “Yes”.

Consider `O=C(c1cc2ccccc2[nH]1)N1CCN(S(=O)(=O)c2cccc3nonc23)CC1` [Compound 66, O=C(N1CCN(CC1)S(=O)(=O)c1cccc2nonc12)c1cc2ccccc2[nH]1], for which the “% Survival, mean” value in the data set with DU145-TXR cells (mean of 8 samples) came to 81.6%. In addition, the “% Survival” value in the data set on DU145-TXR cells (trial 1, sample 1) came to 89%; in the data set with DU145-TXR cells (trial 1, sample 2) it was 94%; in the data set on DU145-TXR cells (trial 1, sample 3), 92%; in the data set on DU145-TXR cells (trial 1, sample 4) it was 90%; with DU145-TXR cells (trial 2, sample 1), 73%; in the data set on DU145-TXR cells (trial 2, sample 2), 76%. In addition, the “% Survival” value with DU145-TXR cells (trial 2, sample 3) is listed as 68%; in the data set on DU145-TXR cells (trial 2, sample 4) it was 70%. Also, the viability at 15 µM with DU145-TXR cells (setting [1]) was found to be 84.2%; in the data set with DU145-TXR cells (setting [2]), 87%; in the data set on DU145-TXR cells (setting [3]), 96%; in the data set with DU145-TXR cells (setting [4]) it was 92%; in the data set with DU145-TXR cells (setting [5]), 90%; in the data set with DU145-TXR cells (setting [6]) it was 76%. In addition, the figures for the viability at 15 µM in the data set with DU145-TXR cells (setting [7]), with DU145-TXR cells (setting [8]) and in the data set with DU145-TXR cells (setting [9]) were 73%, 78% and 82%, respectively. Besides, the “Correct P-gp Substrate Prediction?” value in the data set with P-gp was “No”.

Regarding `COc1ccc(OC)c(NC(=O)c2nnn(-c3ccc4noc(-c5ccccc5)c4c3)c2C)c1` [Compound 71, COc1ccc(OC)c(NC(=O)c2nnn(c2C)-c2ccc3noc(-c4ccccc4)c3c2)c1], the “% Survival, mean” value in the data set on DU145-TXR cells (mean of 8 samples) was 41.6%. For the same compound, the “% Survival” value was determined as 48% in the data set with DU145-TXR cells (trial 1, sample 1); 45% in the data set with DU145-TXR cells (trial 1, sample 2); 45% with DU145-TXR cells (trial 1, sample 3); 51% in the data set on DU145-TXR cells (trial 1, sample 4); 33% in the data set with DU145-TXR cells (trial 2, sample 1); 33% with DU145-TXR cells (trial 2, sample 2). Also, the “% Survival” value is recorded as 36% in the data set with DU145-TXR cells (trial 2, sample 3) and 42% in the data set with DU145-TXR cells (trial 2, sample 4). For the same compound, the viability at 15 µM was 33.8% in the data set on DU145-TXR cells (setting [1]); 44% in the data set with DU145-TXR cells (setting [2]); 33% with DU145-TXR cells (setting [3]); 39% in the data set with DU145-TXR cells (setting [4]); 41% in the data set with DU145-TXR cells (setting [5]); 36% with DU145-TXR cells (setting [6]). Besides, the viability at 15 µM in the data set on DU145-TXR cells (setting [7]) amounted to 25%; with DU145-TXR cells (setting [8]), 28%; with DU145-TXR cells (setting [9]), 25%. Further, in the data set on P-gp, the “Correct P-gp Substrate Prediction?” value was “No”.
